Data reported in patent publication US7423068B2, “Control of parasitic mites of honey bees” (The United States of America as represented by the …, priority 2001, dated 2008).
Marks after values point to notes of the source that are not given here.

How the values were obtained:
[1] = Release rate of 2-heptanone from acrylic blocks; type: physicochemical; conditions: acrylic block, 34° C.
Description: Blocks having the following composition were made:
Polymerization was triggered with 2.9% benzoyl peroxide and 1.1% dimethylparatoluidine. Each block weighed approximately 30 grams (Diam. 60 mm, Height 10 mm). The blocks were molded in an aluminum cup.
However, it was found, because of a packaging problem, that the blocks lost some active ingredient during transportation and had only 30% 2-heptanone. To avoid any further loss of active ingredient, the unused samples were stored at all times in a refrigerator at 4° C. The value of 30% 2-heptanone was kept for further processing of the data. The rate at which 2-heptanone was released from the blocks was measured. The experimental procedure consisted in weighing the acrylic blocks left in their aluminum mold at regular intervals. The blocks were kept in an incubator set at 34° C. (temperature of the center of the brood nest in a honey bee hive). It is noteworthy that the incubator is not air tight and that the incubator glass door had to be opened to retrieve the sample to be weighed. An Isotemp Incubator from Fisher Scientific was used. The incubator has a measured volume of 71 liters. The samples were monitored for 44 days.

[2] = system: honey bee (Apis mellifera L.) colony; assay: Influence of 2-heptanone on honey bee colony behavior (two-frame observation hive); type: in vivo
Experimental: Tests were conducted with 2-heptanone in pure form and in a 30% concentration in acrylic block made as in Example 6 to determine its effects on the honey bee (Apis mellifera L.) colony behavior. A two-frame observation hive (the hive had one frame on the bottom with adult worker bees and brood and a top frame with adult worker bees and honey) with a laying queen was used for the study. […] Within 4 hours the 2-heptanone had evaporated, and the bees returned to the frame, and the fanning stopped.
To test the effects of 2-heptanone in acrylic blocks, we again conducted studies using two frame observation hives arranged as described above. For one week prior to inserting the acrylic blocks, we measured queen ovipositions, and the number of workers bees leaving the hive per 5-minute interval in four observation colonies. We also counted the number of workers in a court surrounding the queen once during the 5-minute interval. We then added one acrylic block dispenser with a surface area of 8.04 cm^2 containing a 30% concentration of 2-heptanone. […] The latter served as Controls.

Varroa mites [3] = assay: Varroa trapping device in a Varroa-infested 9-frame colony; type: in vivo, Varroa jacobsoni; conditions: trap coated with 20% 2-heptanone gel, between brood frames, after 48 hrs
Description: In a second test to determine if 2-heptanone is an attractant, a Varroa trapping device was placed in a Varroa-infested 9-frame colony for 48 hrs. The device was constructed by placing a 2.54 cm^2 piece of Dewill® Varroa Mite Detector Insert coated with a 20% concentration of 2-heptanone in a gel formulation and covered with a 0.63 cm (0.25 inch) wire mesh. A wire was placed through the top of the trap so that the trap dangled between the frames in the colony. The device was placed between frames containing brood.

Varroa mites [4] = assay: Bulls eye petri dish bioassay for attractiveness; type: in vivo, Varroa jacobsoni; conditions: for % of Varroa at distance from Target Source 2.5 cm / % of Varroa at distance from Target Source 3.8 cm / % of Varroa at distance from Target Source 6.3 cm / % of Varroa in Target / % of Varroa at distance from Target Source 1.3 cm / % of Varroa at distance from Target Source 5.1 cm: 0.04 g of 30% 2-heptanone acrylic block
Experimental: A third bioassay to test for attractiveness of 2-heptanone to Varroa was conducted in petri dishes with a diameter of 13.97 cm and a volume of 76.64 cm^3. The dishes were prepared as described previously in the first bioassay of this Example using 20% gel formulation of 2-heptanone. However, the petri dishes for this bioassay were modified by drilling a hole 1.6 cm in diameter into the center of the dish. This hole was large enough to fit a 1.5 mL Eppendorf® tube which would serve as the dispenser for the 2-heptanone. The lid of each petri dish was labeled in a “bulls eye” fashion with concentric circles at 1.27 cm increments from the center where the Eppendorf® tube was located. The maximum distance from the center was 6.35 cm. The Eppendorf® tube is considered the target. In the treatment dishes, 0.04 g of 2-heptanone in acrylic block formulation (30% concentration) was placed in the Eppendorf® tube and covered with a small amount of sterile cotton. Control dishes were prepared in the same manner as the treatment dishes but the Eppendorf® tubes contained only cotton. Mites (4-5 per dish) were placed in each dish in the area furthest from the center where the Eppendorf® tube was located.
After the dishes were prepared a square section of mosquito netting large enough to cover the top of the petri dish was placed over the dish and secured with a rubber band. The mosquito netting was used instead of a lid on the dish. The mesh of the netting was wide enough to allow the 2-heptanone to volatilize, but prevented the mites from escaping. The marked lids were placed on top of the dishes every 30 minutes to document mite movement. After the measurements were made, the lids were immediately removed.
A fourth test of attractiveness was conducted in the petri dishes that were prepared as described above. In this test 0.06 g of 2-heptanone (30% concentration in acrylic block delivery system) was placed in the center target of the treatment plates. Control plates contained an empty Eppendorf® tube. The mites were placed 3.17 cm from the target. The mites could move closer or farther away from the target. Two treatment and two Control plates with 5 mites each were observed.

[5] = filter paper with 40 μl of pure 2-heptanone
[6] = exposure 1 hr, significantly different from Control

Structure (SMILES): CCCCCC(C)=O [2-Heptanone]
- % 2-Heptanone loss (initial conc. 30%) ([1]; Day 0): 0%
- Daily release in percentage ([1]; Day 0): 0 percentage
- % 2-Heptanone loss (initial conc. 30%) ([1]; Day 1): 29.13%
- Daily release in percentage ([1]; Day 1): 29.13 percentage
- % 2-Heptanone loss (initial conc. 30%) ([1]; Day 2): 38.76%
- Daily release in percentage ([1]; Day 2): 9.63 percentage
- % 2-Heptanone loss (initial conc. 30%) ([1]; Day 3): 49.04%
- Daily release in percentage ([1]; Day 3): 10.28 percentage
- % 2-Heptanone loss (initial conc. 30%) ([1]; Day 4): 55.72%
- Daily release in percentage ([1]; Day 4): 6.68 percentage
- % 2-Heptanone loss (initial conc. 30%) ([1]; Day 7): 68.85%
- Daily release in percentage ([1]; Day 7): 4.38 percentage
- % 2-Heptanone loss (initial conc. 30%) ([1]; Day 8): 71.82%
- Daily release in percentage ([1]; Day 8): 2.97 percentage
- % 2-Heptanone loss (initial conc. 30%) ([1]; Day 9): 74.7%
- Daily release in percentage ([1]; Day 9): 2.88 percentage
- % 2-Heptanone loss (initial conc. 30%) ([1]; Day 10): 76.09%
- Daily release in percentage ([1]; Day 10): 1.39 percentage
- % 2-Heptanone loss (initial conc. 30%) ([1]; Day 11): 77.88%
- Daily release in percentage ([1]; Day 11): 1.79 percentage
- % 2-Heptanone loss (initial conc. 30%) ([1]; Day 14): 82.31%
- Daily release in percentage ([1]; Day 14): 1.48 percentage
- % 2-Heptanone loss (initial conc. 30%) ([1]; Day 15): 83.43%
- Daily release in percentage ([1]; Day 15): 1.12 percentage
- % 2-Heptanone loss (initial conc. 30%) ([1]; Day 16): 84.39%
- Daily release in percentage ([1]; Day 16): 0.96 percentage
- % 2-Heptanone loss (initial conc. 30%) ([1]; Day 18): 86.24%
- Daily release in percentage ([1]; Day 18): 0.92 percentage
- % 2-Heptanone loss (initial conc. 30%) ([1]; Day 21): 88.43%
- Daily release in percentage ([1]; Day 21): 0.73 percentage
- % 2-Heptanone loss (initial conc. 30%) ([1]; Day 24): 89.98%
- Daily release in percentage ([1]; Day 24): 0.52 percentage
- % 2-Heptanone loss (initial conc. 30%) ([1]; Day 30): 92.36%
- Daily release in percentage ([1]; Day 30): 0.4 percentage
- % 2-Heptanone loss (initial conc. 30%) ([1]; Day 44): 95.21%
- Daily release in percentage ([1]; Day 44): 0.2 percentage
- immediate effect on the bees on the frames ([2]; acrylic block 8.04 cm^2, 30% 2-heptanone): no immediate effect on the bees on the frames
- Ovipositions, Post-Treatment ([2]; acrylic block 8.04 cm^2, 30% 2-heptanone, average per 5-minute interval, pretreatment 5.3): 5.3
- Workers in court, Post-Treatment ([2]; acrylic block 8.04 cm^2, 30% 2-heptanone, average per 5-minute interval, pretreatment 10.2): 10.2
- Foragers leaving, Post-Treatment ([2]; acrylic block 8.04 cm^2, 30% 2-heptanone, average per 5-minute interval, pretreatment 16.1, significantly different p = 0.05): 23.6*
- bee behavior after placing 2-heptanone in observation colony [2, 5]: all the bees moved off of the frame and began to fan
- time until 2-heptanone evaporated, bees returned to the frame and fanning stopped [2, 5]: ≤ 4 h
- Varroa mites found stuck in the gel on the trap (Varroa mites [3]): several hundred
- % of Varroa at distance from Target Source 2.5 cm (Varroa mites [4]; exposure 1 hr): 7.5%
- % of Varroa at distance from Target Source 3.8 cm (Varroa mites [4]; exposure 1 hr): 25.0%
- % of Varroa at distance from Target Source 6.3 cm (Varroa mites [4]; exposure 1 hr): 17.5%
- % of Varroa in Target (Varroa mites [4]; exposure 1 hr): 0%
- % of Varroa at distance from Target Source 1.3 cm (Varroa mites [4]; [6]): 27.5* %
- % of Varroa at distance from Target Source 5.1 cm (Varroa mites [4]; [6]): 16.2* %
- % of Varroa at distance from Target Source 1.3 cm (Varroa mites [4]; exposure 2 hrs): 32.5%
- % of Varroa at distance from Target Source 2.5 cm (Varroa mites [4]; exposure 2 hrs): 20.0%
- % of Varroa at distance from Target Source 3.8 cm (Varroa mites [4]; exposure 2 hrs): 12.5%
- % of Varroa at distance from Target Source 5.1 cm (Varroa mites [4]; exposure 2 hrs): 15.0%
- % of Varroa at distance from Target Source 6.3 cm (Varroa mites [4]; exposure 2 hrs): 10.0%
- % of Varroa in Target (Varroa mites [4]; exposure 2 hrs): 7.5%
- % of Varroa at distance from Target Source 1.3 cm (Varroa mites [4]; exposure 3 hrs): 45.6%
- % of Varroa at distance from Target Source 2.5 cm (Varroa mites [4]; exposure 3 hrs): 10.6%
- % of Varroa at distance from Target Source 3.8 cm (Varroa mites [4]; exposure 3 hrs): 22.5%
- % of Varroa at distance from Target Source 5.1 cm (Varroa mites [4]; exposure 3 hrs): 12.5%
- % of Varroa at distance from Target Source 6.3 cm (Varroa mites [4]; exposure 3 hrs): 7.5%
- % of Varroa in Target (Varroa mites [4]; exposure 3 hrs): 3.1%
- % of Varroa at distance from Target Source 1.3 cm (Varroa mites [4]; exposure 4 hrs): 42.2%
- % of Varroa at distance from Target Source 2.5 cm (Varroa mites [4]; exposure 4 hrs): 13.3%
- % of Varroa at distance from Target Source 3.8 cm (Varroa mites [4]; exposure 4 hrs): 20.0%
- % of Varroa at distance from Target Source 5.1 cm (Varroa mites [4]; exposure 4 hrs): 18.8%
- % of Varroa at distance from Target Source 6.3 cm (Varroa mites [4]; exposure 4 hrs): 5.5%
- % of Varroa in Target (Varroa mites [4]; exposure 4 hrs): 0%
- % of mites that moved into the target (Varroa mites [4]; fourth test, 0.06 g of 30% 2-heptanone acrylic block, 4 hr. observation, Controls 0.0%): 9.1%
- % of mites that moved within 1.27 cm of the target (Varroa mites [4]; fourth test, 0.06 g of 30% 2-heptanone acrylic block, mites placed 3.17 cm from target, 4 hr. observation, Controls 6.2%): 38.4%
